Tests used:
[1] = molecular target: T1, α-EfCA (Enterococcus faecium, UniProt Q3XYE8); test: biochemical; design: stopped-flow CO2 hydration assay of recombinant carbonic anhydrases, pH 7.4 (alpha) or 8.3 (gamma), KI
T1 construct: gene HMPREF0351_11360
T1 sequence (Q3XYE8 1-234): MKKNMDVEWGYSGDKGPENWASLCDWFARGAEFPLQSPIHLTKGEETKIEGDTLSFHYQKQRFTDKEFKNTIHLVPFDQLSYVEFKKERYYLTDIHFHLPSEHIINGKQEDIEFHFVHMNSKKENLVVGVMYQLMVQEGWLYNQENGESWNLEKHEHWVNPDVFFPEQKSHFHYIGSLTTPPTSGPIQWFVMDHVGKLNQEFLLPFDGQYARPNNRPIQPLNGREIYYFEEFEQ
Protocol: (§1) The experiments were performed at the pH of 7.4 for the α-class enzymes, and the pH of 8.3 for the γ-CA, as reported earlier[15]^,[16]. The bacterial enzymes were recombinant proteins obtained as reported earlier by our group[15]^,[16].

[2] = molecular target: T2, α-NgCA (Neisseria gonorrhoeae, UniProt Q50940); test: biochemical; design: stopped-flow CO2 hydration assay of recombinant carbonic anhydrases, pH 7.4 (alpha) or 8.3 (gamma), KI
T2 construct: gene cah
T2 sequence (Q50940 27-252): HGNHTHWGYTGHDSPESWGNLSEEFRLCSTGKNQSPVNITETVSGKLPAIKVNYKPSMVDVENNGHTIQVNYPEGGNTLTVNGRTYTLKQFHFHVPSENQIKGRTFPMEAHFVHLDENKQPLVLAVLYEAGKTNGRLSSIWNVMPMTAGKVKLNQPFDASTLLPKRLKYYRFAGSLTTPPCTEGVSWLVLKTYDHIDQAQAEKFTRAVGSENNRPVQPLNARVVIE
Protocol: as §1

[3] = molecular target: γ-EfCA; test: stopped-flow CO2 hydrase assay; assay type: biochemical, Enterococcus faecium; conditions: CO2 hydration, pH 8.3
[4] = molecular target: T1, α-EfCA; test: stopped-flow CO2 hydrase assay; assay type: biochemical
[5] = molecular target: T2, α-NgCA; test: stopped-flow CO2 hydrase assay; assay type: biochemical

Row | SMILES | Ki [1] [nM] | Ki [2] [nM] | Ki [3] [µM] | Ki [4] [µM] | Ki [5] [µM]
1 | O=C(S)N1CCOCC1 [compound 1] | 740 | 761 |  |  | 
2 | O=C(S)NCCc1ccccc1 [compound 9] |  | 648 |  |  | 
3 | O=C(S)N1CCN(C(=O)S)CC1 [compound 11] | 915 | 630 |  |  | 
4 | CCCCN(CC)C(=O)S [compound 10] | 806 | 766 |  |  | 
5 | CCCN(CCC)C(=O)S [compound 4] | 550 | 799 |  |  | 
6 | CN(Cc1ccccc1)C(=O)S [compound 8] | 686 | 843 |  |  | 
7 | CCOC(=O)CN(C)C(=O)S [compound 7] | 788 | 919 |  |  | 
8 | CC(C)CN(CC(C)C)C(=O)S [compound 2] | 665 | 890 |  |  | 
9 | O=C(S)N1CCN(c2cccc(Cl)c2)CC1 [compound 15, MTC 15] |  |  | 0.214 | 0.3 | 0.367
10 | CN1CCN(C(=O)S)CC1 [compound 6] | 959 | 729 |  |  | 
11 | CCOC(=O)CN(C)C(=O)S [compound 7, MTC 7] |  |  | 0.279 |  | 
12 | COc1ccc(CCNC(=O)S)cc1OC [compound 12, MTC 12] |  |  | 0.358 | 0.357 | 0.512
13 | O=C(CN1CCN(C(=O)S)CC1)NC1CCCCC1 [compound 5, MTC 5] |  |  | 0.417 | 0.29 | 0.395
14 | CCCCN(CCCC)C(=O)S [compound 3] | 517 | 825 |  |  | 
15 | O=C(S)N1CCN(c2ccc(F)cc2)CC1 [compound 14, MTC 14] |  |  | 0.149 | 0.195 | 0.417
16 | O=C(S)NCCc1ccccc1 [compound 9, MTC 9] |  |  |  | 0.428 | 
17 | O=C(S)N1CCN(c2ccc(C(F)(F)F)cc2)CC1 [compound 13, MTC 13] |  |  | 0.334 | 0.477 | 0.394
